Like-named read-outs stand apart in the source and are kept apart here.
Columns and labels:
full-length human Cal1 [1] = target: T1, full-length human Cal1 (Homo sapiens (Human), UniProt P07384); test: Calpain inhibition FRET assay; assay type: biochemical
[2] = target: Full length porcine calpain (Sus scrofa (Pig), UniProt P35750); test: Calpain inhibition kinetics studies (Suc-LLVY-AMC substrate); assay type: biochemical
[3] = Acute and chronic toxicity, maximum tolerated dose; assay type: in vivo; conditions: mouse, in vivo; mice; no malaise or death
Text: For evaluation of acute and chronic toxicity we measured the maximum tolerated dose (MTD) in mice for 30a, 33 and 50.

Aβ40 and Aβ42 = test: Effect on Aβ levels in APP/PS1 mice; assay type: in vivo; conditions: compound-treated vs vehicle-treated APP/PS1 transgenics
Text: Increase of brain and plasma levels of Aβ and appearance of amyloid plaques is an important feature of AD.

full-length human Cal1 [4] = target: T1, full-length human Cal1; test: Calpain inhibition FRET assay; assay type: biochemical; conditions: Table 3, 20 min incubation, FRET substrate
[5] = test system: Aβ-induced LTP impairment; test: LTP rescue test; conditions: assessed at 650 nM
Experimental: Residual levels of potentiation were averaged during the last 5 min of LTP.

Full length porcine calpain, sequence (P35750 whole entry): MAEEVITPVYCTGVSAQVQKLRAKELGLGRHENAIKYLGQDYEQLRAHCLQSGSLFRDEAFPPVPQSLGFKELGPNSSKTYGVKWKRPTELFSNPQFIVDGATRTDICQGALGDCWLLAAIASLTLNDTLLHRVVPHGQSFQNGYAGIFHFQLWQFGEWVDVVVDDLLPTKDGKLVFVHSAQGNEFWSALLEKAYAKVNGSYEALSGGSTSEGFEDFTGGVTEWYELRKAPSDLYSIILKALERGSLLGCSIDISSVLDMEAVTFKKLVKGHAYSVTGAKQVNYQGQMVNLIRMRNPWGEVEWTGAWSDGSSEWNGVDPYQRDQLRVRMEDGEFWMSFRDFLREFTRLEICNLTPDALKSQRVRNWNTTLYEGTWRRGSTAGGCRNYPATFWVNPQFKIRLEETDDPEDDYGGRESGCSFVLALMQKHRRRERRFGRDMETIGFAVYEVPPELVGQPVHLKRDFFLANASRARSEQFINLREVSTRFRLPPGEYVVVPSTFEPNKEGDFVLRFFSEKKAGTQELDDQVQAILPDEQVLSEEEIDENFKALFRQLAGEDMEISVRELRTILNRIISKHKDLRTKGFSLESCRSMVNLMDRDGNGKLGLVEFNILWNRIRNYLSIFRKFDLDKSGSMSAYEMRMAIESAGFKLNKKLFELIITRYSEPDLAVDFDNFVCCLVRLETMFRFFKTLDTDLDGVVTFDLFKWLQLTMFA
Full length porcine calpain, sequence (P04574 whole entry partner): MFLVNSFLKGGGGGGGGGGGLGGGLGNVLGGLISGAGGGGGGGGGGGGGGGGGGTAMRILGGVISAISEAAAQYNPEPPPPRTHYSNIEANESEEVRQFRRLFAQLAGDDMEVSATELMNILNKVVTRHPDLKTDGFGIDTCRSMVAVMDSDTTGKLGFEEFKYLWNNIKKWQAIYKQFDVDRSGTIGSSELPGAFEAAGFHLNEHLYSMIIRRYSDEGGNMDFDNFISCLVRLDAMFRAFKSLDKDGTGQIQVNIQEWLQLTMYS
T1 sequence (P07384 whole entry): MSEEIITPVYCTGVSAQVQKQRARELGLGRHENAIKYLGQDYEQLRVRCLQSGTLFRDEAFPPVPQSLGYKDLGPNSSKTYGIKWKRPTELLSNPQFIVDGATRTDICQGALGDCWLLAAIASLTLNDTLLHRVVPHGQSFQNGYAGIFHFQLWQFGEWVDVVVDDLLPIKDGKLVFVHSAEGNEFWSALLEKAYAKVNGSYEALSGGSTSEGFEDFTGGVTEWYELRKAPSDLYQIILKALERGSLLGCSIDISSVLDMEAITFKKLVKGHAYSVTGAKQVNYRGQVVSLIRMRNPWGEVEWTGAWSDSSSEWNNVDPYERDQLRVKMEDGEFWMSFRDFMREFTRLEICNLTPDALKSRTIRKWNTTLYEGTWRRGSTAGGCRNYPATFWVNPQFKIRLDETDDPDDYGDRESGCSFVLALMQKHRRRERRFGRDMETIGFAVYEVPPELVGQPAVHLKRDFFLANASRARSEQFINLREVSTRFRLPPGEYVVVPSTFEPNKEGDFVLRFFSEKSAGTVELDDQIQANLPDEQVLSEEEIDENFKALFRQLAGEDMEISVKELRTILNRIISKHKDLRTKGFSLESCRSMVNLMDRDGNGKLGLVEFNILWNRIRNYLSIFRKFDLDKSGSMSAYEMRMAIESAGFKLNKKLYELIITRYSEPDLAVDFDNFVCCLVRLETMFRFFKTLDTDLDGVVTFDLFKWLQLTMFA
T1 sequence (P04632 whole entry partner): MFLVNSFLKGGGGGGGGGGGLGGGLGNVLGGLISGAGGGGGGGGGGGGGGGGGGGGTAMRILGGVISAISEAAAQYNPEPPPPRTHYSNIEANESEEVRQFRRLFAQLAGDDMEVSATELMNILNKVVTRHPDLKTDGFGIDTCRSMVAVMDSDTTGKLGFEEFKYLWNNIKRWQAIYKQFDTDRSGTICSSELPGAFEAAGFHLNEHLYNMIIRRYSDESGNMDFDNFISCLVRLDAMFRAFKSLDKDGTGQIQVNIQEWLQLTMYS

O=C(O)C1OC1C(=O)N[C@@H](Cc1cscn1)C(=O)Nc1nc(-c2ccc(F)cc2)cs1 (stereo in doubt) [Compound 33, (2S,3S)-3-((S)-1-(4-(4-fluorophenyl)thiazol-2-ylamino)-1-oxo-3-(thiazol-4-yl)propan-2-ylcarbamoyl)oxirane-2-carboxylic acid]
IC50 (full-length human Cal1 [1]; Cal1, values stated in text, read-out: IC50): ~0.1 µM
IC50 (full-length human Cal1 [1]; Table 2, approximate IC50, read-out: Cal I IC50): 0.1 µM
Ki ([2]; apparent equilibrium constant, full length Cal1, read-out: K1 Calpain1): 2.6 µM
ki Calpain1 ([2]; inhibition rate, full length Cal1): 0.08 s⁻¹
relative selectivity for inhibition of Cal1 over papain (in words) ([2]; ki/Ki as measure, compared with E-64): Cal1 selectivity
rel Calpain1 ([2]; ki/Ki calculated relative to E-64): 0.98
10^−4 × ki/Ki Calpain1 ([2]; mean ± S.D. of triplicate experiments): 2.96 ± 0.14
MTD [3]: 150 mg/kg
Aβ40 and Aβ42 levels in hippocampi (Aβ40 and Aβ42): no difference was detected
IC50 (full-length human Cal1 [4]): 0.1 µM
potency for LTP rescue compared with E64 [5]: surpassed E64
